58 molecules from ChEMBL document CHEMBL3272323, “1-Halobenzyl-1H-indazole-3-carboxylic acids. A new class of antispermatogenic agents” (1976) can be followed below.

The source made the active and inactive calls. No cut-off for these calls is given here.

One test deals with Rattus norvegicus. As to the kind of experiment: Antispermatogenic activity in po dosed Long-Evans rat assessed as reduction of testes weight administered as single dose measured after 5 days. The test is classed as functional. Conditions: Testis, 120 h, read-out: MED.
Take `NC(=O)c1nn(Cc2ccc(Cl)cc2)c2ccccc12`: the minimal effective dose turned out to be 399 mg/kg. The same measure, in the same setting: next, `O=C(O)c1nn(Cc2cccc(Cl)c2)c2ccccc12`: 400 mg/kg; `O=C(O)c1nn(Cc2ccc(Br)cc2Br)c2ccccc12`: 76.5 mg/kg; `O=C(O)c1nn(Cc2cc(Cl)c(Cl)cc2Cl)c2ccccc12`: 248 mg/kg. Same read-out and setting: next, `O=C(O)c1nn(Cc2ccc(Cl)c(Cl)c2)c2ccccc12`: 448 mg/kg; `Cc1cc(Cl)ccc1Cn1nc(C(=O)O)c2ccccc21` [TOLNIDAMINE]: 52 mg/kg; `O=C(O)c1nn(Cc2ccccc2Cl)c2ccccc12`: 200 mg/kg. On the same count and under the same terms, as for `O=C(O)c1nn(Cc2ccc(I)cc2)c2ccccc12`, the figure is 528 mg/kg; as for `O=C(OC(CO)CO)c1nn(Cc2ccc(Cl)cc2)c2ccccc12`, 503 mg/kg; as for `Cc1ccccc1Cn1nc(C(=O)O)c2ccccc21`, 186 mg/kg. For the molecule `O=C(OCC(O)CO)c1nn(Cc2ccc(Cl)cc2Cl)c2ccccc12` (stereo not drawn), the minimal effective dose came to 69 mg/kg. Take `O=C(OCC(O)CO)c1nn(Cc2cc(Cl)c(Cl)cc2Cl)c2ccccc12` (stereo not drawn): the minimal effective dose turned out to be 300 mg/kg.

With `Cc1ccc(Cn2nc(C(=O)O)c3ccccc32)c(C)c1` [XINIDAMINE], the minimal effective dose amounted to 101 mg/kg.

`O=C(O)c1nn(Cc2ccc(F)cc2)c2ccccc12`: the minimal effective dose came out at 377 mg/kg. Regarding `O=C(OCC(O)CO)c1nn(Cc2ccc(Cl)cc2)c2ccccc12` (stereo not drawn), the minimal effective dose amounted to 503 mg/kg. Same read-out and setting: next, `O=C(O)c1nn(Cc2ccc(Cl)cc2)c2ccccc12`: 400 mg/kg. Still for that read-out and setting: next, `O=C(O)c1nn(Cc2ccc(Cl)cc2Cl)c2ccccc12` [LONIDAMINE]: 56 mg/kg. `O=C(OCC(O)CO)c1nn(Cc2ccccc2Cl)c2ccccc12` (stereo not drawn): the minimal effective dose is 503 mg/kg. Take `O=C(OCCO)c1nn(Cc2ccc(Cl)cc2)c2ccccc12`: the minimal effective dose was found to be 486 mg/kg. Same read-out and setting: next, `O=C(O)Cc1nn(Cc2ccc(Cl)cc2)c2ccccc12`: 419 mg/kg. On the same count and under the same terms, next, `O=C(O)c1nn(Cc2ccc(Br)cc2)c2ccccc12`: 231 mg/kg.

The test system of another test is Rattus norvegicus. Description: Antispermatogenic activity in Long-Evans rat assessed as reduction of testes weight at a dose equimolecular to 400 mg/kg of 1-(4-chlorobenzyl)-1H-indazole-3-carboxylic acid administered orally as single dose measured after 5 days. Conditions: Testis. The class given is functional, organism-based. Details: dose 400 mg/kg.
In the case of `CC(=O)c1nn(Cc2ccc(Cl)cc2)c2ccccc12`, the outcome was inactive. Take `N#Cc1ccc(Cn2nc(C(=O)O)c3ccccc32)cc1`: the outcome was inactive. With `O=C(O)CCc1nn(Cc2ccc(Cl)cc2)c2ccccc12`, the result was inactive.

As to `O=C(O)c1nn(Cc2ccc(Cl)cc2)c2ccc(Cl)cc12`, the result was inactive. Same read-out and setting: next, `O=C(O)c1nn(Cc2c(Cl)cccc2Cl)c2ccccc12`: “inactive”. On the same count and under the same terms, next, `O=C(O)c1nn(Cc2cccc(C(F)(F)F)c2)c2ccccc12`: “inactive”; `Clc1ccc(Cn2nc(-c3nnn[nH]3)c3ccccc32)cc1`: “inactive”. As to `Clc1ccc(CCn2nc(-c3nnn[nH]3)c3ccccc32)cc1`, the outcome was inactive. Consider `N#Cc1nn(Cc2ccc(Cl)cc2)c2ccccc12`, for which the outcome was inactive. Same read-out and setting: next, `O=C(c1ccccc1)c1cccc(Cn2nc(C(=O)O)c3ccccc32)c1`: “inactive”; `O=C(O)c1nn(Cc2ccc(S(=O)(=O)c3ccccc3)cc2)c2ccccc12`: “inactive”; `COC(=O)c1nn(Cc2ccc(Cl)cc2)c2ccccc12`: “inactive”. As for `O=C(NCCCCCCCCNC(=O)C(Cl)Cl)C(Cl)Cl`, the outcome was inactive.

Regarding `COc1ccc2c(c1)c(C(=O)O)nn2Cc1ccc(Cl)cc1`, the result was inactive. On the same count and under the same terms, next, `O=C(O)c1nn(S(=O)(=O)c2ccc(Cl)cc2)c2ccccc12`: “inactive”; `O=C(O)c1nn(C(=O)c2ccc(Cl)cc2)c2ccccc12`: “inactive”. The same measure, in the same setting: as for `Nc1nn(Cc2ccc(Cl)cc2)c2ccccc12`, the entry is “inactive”; as for `O=C(O)c1cc2ccccc2n1Cc1ccc(Cl)cc1`, “inactive”; as for `O=C(O)c1nn(Cc2ccc(Cl)cc2)c2ccc(O)cc12`, “inactive”.

Regarding `Clc1ccc(Cn2nc(-c3nnn[nH]3)c3ccccc32)c(Cl)c1`, the outcome was inactive. Regarding `O=C(O)c1nn(-c2ccc(Cl)cc2)c2ccccc12`, the result was inactive. The same measure, in the same setting: next, `O=C(O)c1nn(Cc2ccc(Cl)c3ccccc23)c2ccccc12`: “inactive”. As to `Clc1ccc(Cn2ncc3ccccc32)cc1`, the result was inactive. Regarding `Cc1c(C(=O)O)c2ccccc2n1Cc1ccc(Cl)cc1`, the outcome was inactive. On the same count and under the same terms, next, `O=C(O)c1cn(Cc2ccc(Cl)cc2)c2ccccc12`: “inactive”; `O=C(O)c1ccccc1NCc1ccc(Cl)cc1`: “inactive”; `O=C(Cn1nc(C(=O)O)c2ccccc21)c1ccc(Cl)cc1`: “inactive”. Turning to `Cc1cc(Cl)ccc1Cn1nc(-c2nnn[nH]2)c2ccccc21`, the result was inactive.

`Cc1ccc(Cn2nc(C(=O)O)c3ccccc32)cc1`: the outcome was inactive. Consider `Cc1nn(Cc2ccc(Cl)cc2)c2ccccc12`, for which the result was inactive. Same read-out and setting: next, `O=C(O)c1ccccc1NCc1cccc2ccccc12`: “inactive”; `Sc1nn(Cc2cccc(Cl)c2)c2ccccc12`: “inactive”; `OCc1nn(Cc2ccc(Cl)cc2)c2ccccc12`: “inactive”. Still for that read-out and setting: as for `Cc1cccc(Cn2nc(C(=O)O)c3ccccc32)c1`, the entry is “inactive”; as for `CS(=O)(=O)c1ccc(Cn2nc(C(=O)O)c3ccccc32)cc1`, “inactive”; as for `CCOC(=O)c1nn(Cc2ccc(Cl)cc2)c2ccccc12`, “inactive”. The same measure, in the same setting: as for `Cc1ccc2c(c1)c(C(=O)O)nn2Cc1ccc(Cl)cc1`, the entry is “inactive”.
